Test system: human fibroblasts
Experiment: TMT proteomics of fibroblasts with and without UV exposure, differential expression and pathway analysis
Format: cell-based
Settings: result in words
Method: Human fibroblasts were obtained from Cell Applications Inc (Cat. # 106-05a) and were maintained in Dulbecco’s Modified Eagle medium (DMEM, Corning, Cat. #10-013-CV) with 10% fetal bovine serum (Gibco, Cat. #10082147) and 1% penicillin/streptomycin (Gibco, Cat. # 15070-063) in a humidified incubator with 5% CO2 at 37 °C. For ultraviolet radiation, fibroblasts were seeded in a 96-well plate at a density of 25,000 cells/well and maintained at 37 °C for 24 h. Cells were washed once with Hanks’ balanced salt solution (HBSS, Gibco, Cat. #14025-092), then treated for 1 h with different concentrations of compounds prepared in HBSS. Vitamin C (Sigma, Cat. # A5960) served as a positive control. Treated cells were exposed to ultraviolet light (UVP cross-linker, CL1000, 254 nm UV, 8 watts) at a total dose of 20 mJ/cm^2. Following irradiation, the HBSS was replaced with culture medium containing the same concentration of compounds as before irradiation, and cells were again maintained at 37 °C. Cell viability was measured at 24 h post-irradiation using CellTiter-Glo according to the manufacturer’s instructions (Promega, Cat.# G7571). Results were expressed as relative cell viability (%) with respect to control cells (cells without ultraviolet irradiation or compound treatment).
Frozen cell pellets were dissolved for 15 min in 6M Guanidinium Chloride at room temperature to lyse cells. Then, each solution was run on a 10 kDa filter (Pall, TX) and washed with 50 μL of TEAB buffer at 3000 rpm. FASP Digestion ([56]): A stock solution of Trypsin Platinum, Mass Spec Grade (Promega) at 100 μg/mL in 50 mM TEAB, and a specific volume of stock trypsin was added to each sample vial for each set of […] using a 1:50 ratio (Trypsin:Protein). Samples were incubated for 2 h at 50 °C and shaken/mixed at 350 rpm on an Eppendorf ThermoMixer C. TMT Labeling: Samples, now peptides, were labeled using 4 μL of TMTpro Mass Tag Labels (ThermoScientific). After labeling, samples were then shaken/mixed for 45 min to ensure labels were covalently bonded to peptides. The labeling reaction was quenched for 10 min using 1 μL of 5% hydroxyalamine. After quenching, samples were pooled into one 2 mL Eppendorf tube and then dried down using an Eppendorf Vacufuge Plus. Desalting Samples: Dried samples were resuspended in 300 μL of 0.1% TFA in ultrapure HPLC-grade water and vortexed to ensure full solubility. Samples were then desalted using Pierce^TM Peptide Desalting Spin Columns (ThermoScientific). Final eluates (desalted samples) contained 600 μL of 50% HPLC-grade Acetonitrile and 50% ultrapure HPLC-grade water. Desalted samples were then transferred to HPLC vials and were again dried down. […]

## O=c1c(O[C@@H]2O[C@H](CO)[C@@H](O)[C@H](O)[C@H]2O)c(-c2ccc(O)c(O)c2)oc2cc(O)cc(O)c12 [isoquercitrin]
UV-irradiated cells
  proteins/pathways up- and downregulated, exposed to UV radiation: upregulation of collagen and cell cycle/DNA repair proteins while downregulating proteins associated with autophagy, necroptosis, ferroptosis, lysosomal degradation, and other pathways
Control conditions without UV
  proteins/pathways up- and downregulated, without UV treatment: upregulated proteins associated with DNA repair pathways and downregulated inflammatory pathways
